Assays:
[1] = target: T1, 5-hydroxytryptamine receptor 2C (Sus scrofa, UniProt G7ZKZ7)
T1 sequence (G7ZKZ7 whole entry): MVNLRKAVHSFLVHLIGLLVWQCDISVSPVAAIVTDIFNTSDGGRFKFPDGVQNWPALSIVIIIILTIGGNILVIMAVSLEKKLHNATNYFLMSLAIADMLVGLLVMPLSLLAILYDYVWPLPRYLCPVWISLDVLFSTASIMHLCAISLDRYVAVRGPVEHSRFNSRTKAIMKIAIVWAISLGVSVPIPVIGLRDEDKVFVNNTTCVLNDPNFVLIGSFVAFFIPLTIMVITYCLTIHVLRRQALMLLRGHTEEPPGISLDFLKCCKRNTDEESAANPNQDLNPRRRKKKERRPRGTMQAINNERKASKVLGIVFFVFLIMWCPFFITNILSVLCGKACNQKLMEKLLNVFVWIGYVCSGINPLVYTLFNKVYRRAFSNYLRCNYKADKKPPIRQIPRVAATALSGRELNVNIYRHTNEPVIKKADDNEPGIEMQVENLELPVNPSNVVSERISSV

[2] = target: T2, 5-hydroxytryptamine receptor 3A (Rattus norvegicus, UniProt P35563)
T2 sequence (P35563 whole entry): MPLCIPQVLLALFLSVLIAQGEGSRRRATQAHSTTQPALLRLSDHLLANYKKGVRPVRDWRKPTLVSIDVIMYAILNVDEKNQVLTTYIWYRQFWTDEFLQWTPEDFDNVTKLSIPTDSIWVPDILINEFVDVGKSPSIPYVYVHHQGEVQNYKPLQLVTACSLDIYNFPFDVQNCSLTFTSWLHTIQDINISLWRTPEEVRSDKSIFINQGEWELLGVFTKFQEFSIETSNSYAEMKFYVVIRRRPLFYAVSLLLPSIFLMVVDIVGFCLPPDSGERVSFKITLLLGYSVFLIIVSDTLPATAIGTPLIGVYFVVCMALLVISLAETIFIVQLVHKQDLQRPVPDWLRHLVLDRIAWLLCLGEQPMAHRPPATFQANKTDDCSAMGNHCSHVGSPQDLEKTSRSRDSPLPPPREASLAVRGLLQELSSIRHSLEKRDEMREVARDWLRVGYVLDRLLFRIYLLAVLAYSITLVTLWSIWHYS

[3] = target: 5-hydroxytryptamine receptor 1B (Rattus norvegicus, UniProt P28564)
[4] = target: 5-hydroxytryptamine receptor 2A (Rattus norvegicus, UniProt P14842)
[5] = target: T3, 5-hydroxytryptamine receptor 1A (Rattus norvegicus, UniProt P19327)
T3 sequence (P19327 whole entry): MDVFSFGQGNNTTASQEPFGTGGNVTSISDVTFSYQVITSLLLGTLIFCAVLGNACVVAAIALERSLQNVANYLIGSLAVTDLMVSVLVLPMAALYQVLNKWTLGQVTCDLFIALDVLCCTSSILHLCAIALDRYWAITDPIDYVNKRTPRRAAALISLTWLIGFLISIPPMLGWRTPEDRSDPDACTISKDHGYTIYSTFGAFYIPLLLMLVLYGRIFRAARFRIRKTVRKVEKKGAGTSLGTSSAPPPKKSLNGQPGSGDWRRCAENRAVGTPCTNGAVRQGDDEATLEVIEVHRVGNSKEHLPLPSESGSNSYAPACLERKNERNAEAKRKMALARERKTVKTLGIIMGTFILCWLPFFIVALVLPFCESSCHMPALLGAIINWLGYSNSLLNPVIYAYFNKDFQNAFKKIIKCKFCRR

Sequence of 5-hydroxytryptamine receptor 2A (P14842 whole entry): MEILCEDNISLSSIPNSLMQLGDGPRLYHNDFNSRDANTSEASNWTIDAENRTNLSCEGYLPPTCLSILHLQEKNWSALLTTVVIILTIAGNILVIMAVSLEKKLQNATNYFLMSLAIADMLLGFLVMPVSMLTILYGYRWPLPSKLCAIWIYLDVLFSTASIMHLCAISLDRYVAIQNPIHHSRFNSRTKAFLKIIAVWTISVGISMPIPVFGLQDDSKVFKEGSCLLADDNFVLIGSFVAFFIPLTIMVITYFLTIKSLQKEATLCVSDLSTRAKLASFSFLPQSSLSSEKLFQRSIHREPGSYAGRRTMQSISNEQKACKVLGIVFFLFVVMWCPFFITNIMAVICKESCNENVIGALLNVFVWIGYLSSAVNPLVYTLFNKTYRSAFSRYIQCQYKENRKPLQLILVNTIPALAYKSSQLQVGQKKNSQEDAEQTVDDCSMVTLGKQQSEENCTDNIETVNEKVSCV
Sequence of 5-hydroxytryptamine receptor 1B (P28564 whole entry): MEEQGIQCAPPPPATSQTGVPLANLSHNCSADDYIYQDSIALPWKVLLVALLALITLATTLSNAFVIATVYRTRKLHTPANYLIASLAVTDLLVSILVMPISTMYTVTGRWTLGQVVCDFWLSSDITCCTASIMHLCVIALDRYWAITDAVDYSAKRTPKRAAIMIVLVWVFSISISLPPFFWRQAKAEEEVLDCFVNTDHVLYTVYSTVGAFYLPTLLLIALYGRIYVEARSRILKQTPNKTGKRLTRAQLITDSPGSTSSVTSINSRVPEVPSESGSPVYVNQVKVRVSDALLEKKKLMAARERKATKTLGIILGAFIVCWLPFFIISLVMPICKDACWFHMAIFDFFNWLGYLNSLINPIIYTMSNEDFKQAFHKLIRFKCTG

## COc1ccccc1N1CCN(CCN2C(=O)CC3(CCCC3)CC2=O)CC1
[1]
  Ki: 234 nM
[2]
  Ki: 1000 nM
[3]
  Ki: > 10000 nM
[4]
  Ki: 1740 nM

## CC(C)(C)NCC(O)COc1cccc2c1SCCC2 (single isomer, unassigned; (-)) [TERTATOLOL(-)]
[1]
  Ki: 363 nM
[2]
  Ki: 1000 nM
[3]
  Ki: 182 nM
[4]
  Ki: 1450 nM
[5]
  Ki: 8.31 nM

## c1cc2c(c(N3CCNCC3)c1)OCCO2 [1-(2,3-Dihydro-benzo[1,4]dioxin-5-yl)-piperazine]
[1]
  Ki: 170 nM
[2]
  Ki: 1000 nM
[3]
  Ki: 53.7 nM
[4]
  Ki: 1380 nM
[5]
  Ki: 9.33 nM

## COc1ccccc1N1CCN(CCCCN2C(=O)c3ccccc3C2=O)CC1 [2-{4-[4-(2-Methoxy-phenyl)-piperazin-1-yl]-butyl}-isoindole-1,3-dione]
[1]
  Ki: 776 nM
[3]
  Ki: 1070 nM
[4]
  Ki: 646 nM

## O=C(CCCN1CCC2(CC1)C(=O)NCN2c1ccccc1)c1ccc(F)cc1 [8-[4-(4-fluorophenyl)-4-oxidanylidene-butyl]-1-phenyl-1,3,8-triazaspiro[4.5]decan-4-one]
[1]
  Ki: 977 nM
[3]
  Ki: > 10000 nM
[5]
  Ki: 115 nM

## C=CCc1ccccc1OC[C@@H](O)CNC(C)C [ALPRENOLOL,(-)]
[1]
  Ki: 4470 nM
[3]
  Ki: 100 nM
[4]
  Ki: 5010 nM

## O=C1CC2(CCCC2)CC(=O)N1CCNCC1COc2ccccc2O1 (configuration not stated) [CAS_124756-23-6]
[1]
  Ki: 427 nM
[3]
  Ki: 4570 nM
[4]
  Ki: 1620 nM
[5]
  Ki: 1.25 nM

## COC(=O)c1cc2c(N3CCN(CCCCN4C(=O)c5ccccc5S4(=O)=O)CC3)cccc2[nH]1 [CAS_141533-35-9]
[5]
  Ki: 1.58 nM

## c1ccc2c(c1)CCC2CCN1CCN(c2cccc3c2OCCO3)CC1 (configuration not stated) [CAS_182596]
[1]
  Ki: 115 nM
[2]
  Ki: 53.7 nM
[3]
  Ki: 417 nM
[4]
  Ki: 191 nM
[5]
  Ki: 1.51 nM

## c1ccc2c(c1)CC(N1CCN(c3cccc4c3OCCO4)CC1)C2 [NSC_132787]
[1]
  Ki: 537 nM
[2]
  Ki: 1000 nM
[3]
  Ki: 1740 nM
[4]
  Ki: 214 nM

## c1ccc2c(c1)CC2CCN1CCN(c2cccc3c2OCCO3)CC1 (configuration not stated) [NSC_182595]
[1]
  Ki: 151 nM
[2]
  Ki: 372 nM
[3]
  Ki: 603 nM
[4]
  Ki: 141 nM
[5]
  Ki: 0.61 nM

## COc1ccccc1N1CCN(C[C@@H](C(=O)NC(C)(C)C)c2ccccc2)CC1 [WAY 100135]
[1]
  Ki: 3470 nM
[2]
  Ki: 1000 nM
[3]
  Ki: > 10000 nM
[4]
  Ki: 3470 nM
[5]
  Ki: 32.4 nM

Reference: BindingDB's records for PubMed 8301575 (Institut De Recherches Servier, 1994)
